Like-named read-outs stand apart in the source and are kept apart here.
How the values were obtained:
[1] = clinical; details: male, human, plasma
[2] = Pharmacokinetic drug-drug interaction study of ibuprofen and famotidine in healthy male subjects; details: for Bioequivalence when administered in combination compared to separate administration: 800 mg ibuprofen and 40 mg famotidine; for Difference of log-transformed AUC(last), alone versus in combination / Difference of log-transformed Cmax, alone versus in combination: bioequivalence test
[3] = system: intragastric pH
From the text: The estimated pharmacodynamic parameters are listed below: Using the pharmacokinetic parameters obtained above together with the pharmacodynamic parameters above, plasma concentrations as well as intragastric pH as a function of time were simulated for various dose regimens.

[4] = system: gastric pH; details: for Amount by which TID dosing exceeded BID dosing, Gastric pH (24 h), mean of group / Amount by which TID dosing exceeded BID dosing, Upright Gastric pH, mean of group / Mean reduction in time with gastric pH below 3.5, TID compared to BID / Mean reduction in time with gastric pH below 4.0, TID compared to BID: 26.6 mg TID vs 40 mg BID; for Median pH (Upright), by subject / Fraction time pH < 4, by subject / Time pH < 4, by subject: individual subjects; for Fraction time pH < 4, by subject / Time pH < 4, by subject: 24 h; for Patients with 24-hour median gastric pH below 2.5: 13 subjects
Description: Thirteen healthy subjects participated in the study.
There was a washout of at least one week between administration of the last dose of Treatment Period 1 and administration of the first dose of Treatment Period 2.
All doses of study medication were administered orally, on an open-label basis. Subjects were prohibited from taking any medications or interventions that decrease gastric acid secretion or neutralize gastric acid, and any medications that are known or suspected to cause dyspepsia or gastrointestinal ulcers, throughout the study period.
(The first day of dosing for each treatment period is designated Study Day 1, and the last day of dosing is designated Study Day […]). Subjects were followed for 14 days after administration of their last dose of study medication.
(§1) For each patient the median pH during a 24 hour period (or subperiod thereof) was calculated. To measure the effect of treatments for a group of individuals, the average or mean of the measured medians for several individuals was determined (i.e., average={[M1+M2 . . . Mx]/X} where “x” is the number of individuals in the group and each “M” is the median for an individual in the group).

[5] = for Famotidine (% control): glass vials
From the text: Forced degradation conditions refer to conditions of elevated temperature, or elevated temperature and humidity, intended to accelerate the process of chemical degradation. Forced degradation conditions for a period of time are used to predict the effect of storage under more benign conditions (e.g., room temperature) for a longer period of time.
After grinding, API mixture was stored in glass vials under the conditions indicated.

[6] = Description: as §1
Samples were collected prior to initiation of dosing, and prior to administration of the second dose of study medication on Study Day 1 and Study Day 5 during both treatment periods.

[7] = remark: listed apart in the source
From the text: where V/F is the apparent volume of distribution, ka is the absorption rate constant, kel is the elimination rate constant and Tlag is the absorption lag time.

[8] = 26.6 mg TID, 24 h of Study Day 1, all subjects n=13
[9] = 26.6 mg TID, Study Day 1, all subjects
[10] = 26.6 mg TID, Study Day 1, all subjects n=13
[11] = 26.6 mg TID, Study Day 1, normal weight subjects
[12] = 26.6 mg TID, Study Day 1, normal weight subjects n=9
[13] = 40 mg BID, 24 h of Study Day 1, all subjects n=13
[14] = 40 mg BID, Study Day 1, all subjects
[15] = 40 mg BID, Study Day 1, all subjects n=13
[16] = 40 mg BID, Study Day 1, normal weight subjects
[17] = 40 mg BID, Study Day 1, normal weight subjects n=9
[18] = fit to mean plasma data of 40 mg Pepcid single dose study

For `CC(C)Cc1ccc(C(C)C(=O)O)cc1` (stereo not drawn) [ibuprofen, 2-(p-isobutylphenyl) propionic acid], which Tmax ([1]; oral) is on record?
The Tmax was 2.25 ± 1.89 h.

And the Tmax ([1]; po)?
The Tmax was 1.58 ± 0.49 h.

What about the “Bioequivalence when administered in combination compared to separate administration” value [2] of the same compound?
Its value is “bioequivalent”.

And the “Difference of log-transformed AUC(last), alone versus in combination” value [2]?
The value was 0.02.

And the “Difference of log-transformed Cmax, alone versus in combination” value [2]?
The value was 0.02.

What does the source list for `NC(N)=Nc1nc(CSCCC(N)=NS(N)(=O)=O)cs1` [famotidine, 3-[2-(diaminomethyleneamino)thiazol-4-ylmethylthio]-N-sulfamoyl propionamidine]?
Emax (maximum intragastric pH) ([3]; sigmoid Emax fit of digitized plasma concentration vs intragastric pH, one patient (Echizen and Ishizaki)): 7.80; E0 (intragastric pH at time zero) ([3]; sigmoid Emax fit, one patient): 1.88; γ (shape factor) ([3]; sigmoid Emax fit, one patient): 4.80; EC50 (Pepcid concentration at one-half of Emax) ([3]; sigmoid Emax fit, plasma concentration vs intragastric pH, one patient): 0.0326 µg/mL; Amount by which TID dosing exceeded BID dosing, Gastric pH (24 h), mean of group ([4]; all subjects): 0.3 pH Units; Amount by which TID dosing exceeded BID dosing, Upright Gastric pH, mean of group ([4]; all subjects): 0.5 pH Units; Mean reduction in time with gastric pH below 3.5, TID compared to BID ([4]; all subjects): 19.5 min; Mean reduction in time with gastric pH below 4.0, TID compared to BID ([4]; all subjects): 23.1 min; Amount by which TID dosing exceeded BID dosing, Gastric pH (24 h), mean of group ([4]; normal weight group): 0.5 pH Units; Amount by which TID dosing exceeded BID dosing, Upright Gastric pH, mean of group ([4]; normal weight group): 0.8 pH Units; Mean reduction in time with gastric pH below 3.5, TID compared to BID ([4]; normal weight group): 89.3 min; Mean reduction in time with gastric pH below 4.0, TID compared to BID ([4]; normal weight group): 89.9 min; Average time below pH 3.5 [4, 8]: 693.5 min; Average time below pH 4.0 [4, 8]: 783.4 Minutes; Average Absolute Deviation of 24 hour median gastric pH [4, 9]: 0.5; Average Absolute Deviation of pH in upright position [4, 9]: 0.7; Average Absolute Deviation of time below pH 3.5 [4, 9]: 124.7 min; Average Absolute Deviation of time below pH 4.0 [4, 9]: 111.9 min; Max-Min of pH values in the upright position [4, 9]: 2.4 pH units; Max-Min of time below pH 3.5 [4, 9]: 436 min; Max-Min of time below pH 4.0 [4, 9]: 459 min; Standard Deviation of 24 hour median gastric pH [4, 9]: 0.7; Max-Min of 24 hour median gastric pH [4, 10]: 1.9 pH units; Mean of 24 hour median gastric pH [4, 10]: 3.6 pH units; Mean of pH values taken in the upright position [4, 10]: 3.7; Range of 24 hour median gastric pH [4, 10]: 2.5-4.4; Range of pH values taken in the upright position [4, 10]: 2.3-4.7; Range of time below pH 3.5 [4, 10]: 514-950 min; Range of time below pH 4.0 [4, 10]: 589-1048 Minutes; Average Absolute Deviation of 24 hour median gastric pH [4, 11]: 0.5; Average Absolute Deviation of time below pH 3.5 [4, 11]: 116.7 min; Average Absolute Deviation of time below pH 4.0 [4, 11]: 105.4 min; Average Absolute Deviation of upright pH values [4, 11]: 0.9; Average time below pH 3.5 [4, 11]: 662.7 min; Average time below pH 4.0 [4, 11]: 764.2 Minutes; Max-Min of 24 hour median gastric pH [4, 11]: 1.9 pH units; Max-Min of time below pH 3.5 [4, 11]: 436 min; Max-Min of time below pH 4.0 [4, 11]: 459 min; Max-Min of upright pH values [4, 11]: 2.4 pH units; Mean of upright pH values [4, 11]: 3.8; Range of time below pH 3.5 [4, 11]: 514-950 min; Range of time below pH 4.0 [4, 11]: 589-1048 Minutes; Range of upright pH values [4, 11]: 2.3-4.7; Standard Deviation of 24 hour median gastric pH [4, 11]: 0.7; Mean of 24 hour median gastric pH [4, 12]: 3.6; Range of 24 hour median gastric pH [4, 12]: 2.5-4.4; Average time below pH 3.5 [4, 13]: 713.0 min; Average time below pH 4.0 [4, 13]: 806.5 Minutes; Average Absolute Deviation of 24 hour median gastric pH [4, 14]: 0.9; Average Absolute Deviation of pH in upright position [4, 14]: 1.0; Average Absolute Deviation of time below pH 3.5 [4, 14]: 169.1 min; Average Absolute Deviation of time below pH 4.0 [4, 14]: 158.8 min; Max-Min of pH values in the upright position [4, 14]: 3.3 pH units; Max-Min of time below pH 3.5 [4, 14]: 706 min; Max-Min of time below pH 4.0 [4, 14]: 710 min; Standard Deviation of 24 hour median gastric pH [4, 14]: 1.1; Max-Min of 24 hour median gastric pH [4, 15]: 3.3 pH units; Mean of 24 hour median gastric pH [4, 15]: 3.3 pH units; Mean of pH values taken in the upright position [4, 15]: 3.2; Range of 24 hour median gastric pH [4, 15]: 1.8-5.1; Range of pH values taken in the upright position [4, 15]: 1.8-5.1; Range of time below pH 3.5 [4, 15]: 459-1165 min; Range of time below pH 4.0 [4, 15]: 514-1224 Minutes; Average Absolute Deviation of 24 hour median gastric pH [4, 16]: 0.9; Average Absolute Deviation of time below pH 3.5 [4, 16]: 175.1 min; Average Absolute Deviation of time below pH 4.0 [4, 16]: 155.7 min; Average Absolute Deviation of upright pH values [4, 16]: 1.0; Average time below pH 3.5 [4, 16]: 752.0 min; Average time below pH 4.0 [4, 16]: 854.1 Minutes; Max-Min of 24 hour median gastric pH [4, 16]: 2.2 pH units; Max-Min of time below pH 3.5 [4, 16]: 679 min; Max-Min of time below pH 4.0 [4, 16]: 510 min; Max-Min of upright pH values [4, 16]: 2.8 pH units; Mean of upright pH values [4, 16]: 3.0; Range of time below pH 3.5 [4, 16]: 486-1165 min; Range of time below pH 4.0 [4, 16]: 714-1224 Minutes; Range of upright pH values [4, 16]: 1.8-4.6; Standard Deviation of 24 hour median gastric pH [4, 16]: 1.1; Mean of 24 hour median gastric pH [4, 17]: 3.1; Range of 24 hour median gastric pH [4, 17]: 1.8-4.0; Median pH (Upright), by subject ([4]; BID 40 mg): 1.8 pH Units; Fraction time pH < 4, by subject ([4]; BID 40 mg): (69.8%); Time pH < 4, by subject ([4]; BID 40 mg): 1005 min; Patients with 24-hour median gastric pH below 2.5 ([4]; BID period (40 mg)): three; Difference in Median pH (Upright), TID period vs BID period ([4]; Subject 106): 2.2 pH Units; Difference in Median pH, TID period vs BID period ([4]; Subject 106): 2.1 pH Units; Difference in Time pH < 4, BID period vs TID period ([4]; Subject 106): 268 min; Median pH (Upright), by subject ([4]; TID 26.6 mg): 4.0 pH Units; Fraction time pH < 4, by subject ([4]; TID 26.6 mg): (51.2%); Time pH < 4, by subject ([4]; TID 26.6 mg): 737 min; Patients with 24-hour median gastric pH below 2.5 ([4]; TID period (26.6 mg)): no patients; Tmax ([1]; oral): 2.17 ± 0.93 h; half-life ([1]; oral): 3.49 ± 0.35 h; Tmax ([1]; po): 1.67 ± 0.52 h; half-life ([1]; po): 3.66 ± 0.19 h; Famotidine (% control) ([5]; 1 wk 40° C.): 96.1 % control; Famotidine (% control) ([5]; 1 wk 60° C.): 121.0 % control; Famotidine Content (percent of target content) ([5]; 2 weeks at 60° C.): 98%; Famotidine (% control) ([5]; 2 wks 60° C.): 100.1 % control; Plasma accumulation with TID dosing ([6]; 26.6 mg TID vs 40 mg BID, day 5 trough): does not lead to plasma accumulation; Trough plasma concentration of famotidine (mean) ([6]; 26.6 mg TID, Day 1, prior to second dose): 9.7 ng/mL; Trough plasma concentration of famotidine (mean) ([6]; 26.6 mg TID, Day 5, prior to second dose): 15.7 ng/mL; Trough plasma concentration of famotidine (mean) ([6]; 40 mg BID, Day 1, prior to second dose): 10.5 ng/mL; Trough plasma concentration of famotidine (mean) ([6]; 40 mg BID, Day 5, prior to second dose): 15.7 ng/mL; Bioequivalence when administered in combination compared to separate administration [2]: bioequivalent; Kel (mean ± SD) ([2]; administered alone, single oral dose, 800 mg ibuprofen or 40 mg famotidine): 0.19 ± 0.01; Difference of log-transformed AUC(last), alone versus in combination [2]: −0.034; Difference of log-transformed Cmax, alone versus in combination [2]: −0.08; V/F (apparent volume of distribution) ([7]; fit to mean plasma data of 40 mg Pepcid single dose bioequivalence study (n=30)): 241.8 L; Tlag (absorption lag time) [7, 18]: 0.3677 h; ka (absorption rate constant) [7, 18]: 0.8133 h⁻¹; kel (elimination rate constant) [7, 18]: 0.2643 h⁻¹

From patent US8067451B2, “Methods and medicaments for administration of ibuprofen” (Horizon Pharma USA, Inc., priority 2006, dated 2011)
